Test results reported in PubChem BioAssay AID330 (DTP/NCI, 2004).
Several values for one entry are separate records, joined by “and”; a condition that tells them apart may be missing. Identical values can stand only once. Inconclusive results and toxic doses are left out.

Tested on: P388 leukemia ip, CD2F1 mice, survival T/C
Assay: NCI In Vivo Anticancer Drug Screen. Data for tumor model P388 Leukemia (intraperitoneal) in CD2F1 (CDF1) mice
Settings: endpoint: median survival time, higher = longer survival
Procedure, shortened: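 Mice carrying the transplanted tumor received test compound or vehicle. Survival was recorded in each group, and the value is the treated-group measurement divided by that of the vehicle-treated control group.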

[1] = dose: 60.0 mg/kg/injection, schedule: Q01DX005 (ip), vehicle: Klucel (hydroxypropylcellulose) (HPC)
[2] = dose: 120.0 mg/kg/injection, schedule: Q01DX005 (ip), vehicle: Klucel (hydroxypropylcellulose) (HPC)
[3] = dose: 25.0 mg/kg/injection, schedule: Q01DX009 (ip), vehicle: saline with Tween-80
[4] = dose: 50.0 mg/kg/injection, schedule: Q01DX009 (ip), vehicle: saline with Tween-80
[5] = dose: 50.0 mg/kg/injection, schedule: Q01DX005 (ip), vehicle: saline with Tween-80
[6] = dose: 100.0 mg/kg/injection, schedule: Q01DX005 (ip), vehicle: saline with Tween-80
[7] = dose: 200.0 mg/kg/injection, schedule: Q01DX005 (ip), vehicle: saline with Tween-80
[8] = dose: 50.0 mg/kg/injection, schedule: Q01DX009 (ip), vehicle: Klucel (hydroxypropylcellulose) (HPC)
[9] = dose: 200.0 mg/kg/injection, schedule: Q01DX009 (ip), vehicle: Klucel (hydroxypropylcellulose) (HPC)

`COc1c2ccoc2nc2c(OCC=C(C)C)c3c(cc12)OCO3` was tested, and the T/C (dose: 5.0 mg/kg/injection, schedule: Q01DX005 (ip), vehicle: Klucel (hydroxypropylcellulose) (HPC)) was 101 % of control, the T/C (dose: 10.0 mg/kg/injection, schedule: Q01DX005 (ip), vehicle: Klucel (hydroxypropylcellulose) (HPC)) was 100 % of control and the T/C (dose: 20.0 mg/kg/injection, schedule: Q01DX005 (ip), vehicle: Klucel (hydroxypropylcellulose) (HPC)) was 100 % of control. The T/C (dose: 40.0 mg/kg/injection, schedule: Q01DX005 (ip), vehicle: Klucel (hydroxypropylcellulose) (HPC)) was 101 % of control and the T/C (dose: 80.0 mg/kg/injection, schedule: Q01DX005 (ip), vehicle: Klucel (hydroxypropylcellulose) (HPC)) was 94 % of control.
With `CCN(CC)CCNc1ccc(COC(=O)NC)c2oc3ccc(OC(=O)NC)cc3c(=O)c12` the T/C (dose: 3.13 mg/kg/injection, schedule: Q01DX005 (ip), vehicle: Klucel (hydroxypropylcellulose) (HPC)) was 123 % of control.
With `O=c1ccc(OS(=O)(=O)c2ccccc2)n[nH]1` the T/C [1] was 92 % of control and the T/C [2] was 90 % of control.
For `Brc1ccc(N=Cc2cccs2)cc1`, the T/C (dose: 100.0 mg/kg/injection, schedule: Q04DX003 (ip), vehicle: saline) was 100 % of control, the T/C (dose: 200.0 mg/kg/injection, schedule: Q04DX003 (ip), vehicle: saline) was 99 % of control and the T/C (dose: 400.0 mg/kg/injection, schedule: Q04DX003 (ip), vehicle: saline) was 98 % of control.
With `Cc1ccccc1-c1nc2cc(Cl)ccc2c(=O)o1` the T/C [3] was 105 % of control, the T/C [4] was 110 % of control and the T/C (dose: 100.0 mg/kg/injection, schedule: Q01DX009 (ip), vehicle: saline with Tween-80) was 110 % of control.
`C=CCOc1cc2c(cc1Cc1cc(OC)c(OC)c(OC)c1)OCO2` was tested, and the T/C (dose: 60.0 mg/kg/injection, schedule: Q01DX005 (ip), vehicle: saline) was 100 % of control and the T/C (dose: 120.0 mg/kg/injection, schedule: Q01DX005 (ip), vehicle: saline) was 99 % of control.
With `c1ccc2c(c1)C(=NCCCN1CCCCCC1)c1cccn1-2` the T/C [5] was 100 % of control, the T/C [6] was 100 % of control and the T/C [7] was 100 % of control.
For `CCCCCCCCCCCC(=O)/C=C/c1ccccc1`, the T/C [8] was 102 % of control, the T/C (dose: 100.0 mg/kg/injection, schedule: Q01DX009 (ip), vehicle: Klucel (hydroxypropylcellulose) (HPC)) was 93 % of control and the T/C [9] was 94 % of control.
In the case of `CC(C)(C)n1nnnc1N`, the T/C (dose: 12.5 mg/kg/injection, schedule: Q01DX009 (ip), vehicle: Klucel (hydroxypropylcellulose) (HPC)) is reported as 100 % of control, the T/C (dose: 25.0 mg/kg/injection, schedule: Q01DX009 (ip), vehicle: Klucel (hydroxypropylcellulose) (HPC)) is reported as 94 % of control and the T/C [8] is reported as 105 % of control and 112 % of control. For the same molecule, the T/C [9] was 103 % of control.
In the case of `CC1=Nc2cc(N)nn2C(=O)C1`, the T/C (dose: 25.0 mg/kg/injection, schedule: Q01DX005 (ip), vehicle: saline with Tween-80) is reported as 93 % of control, the T/C [5] is reported as 96 % of control and the T/C [6] is reported as 102 % of control. For the same molecule, the T/C [7] was 93 % of control.
In the case of `CCCCCCCCCCCCCCCCN(C)CCO`, the T/C (dose: 12.5 mg/kg/injection, schedule: Q01DX009 (ip), vehicle: saline with Tween-80) is reported as 104 % of control, the T/C [3] is reported as 106 % of control and the T/C [4] is reported as 99 % of control.
For `COc1ccc(C2CC(=O)N(CCCl)C(=O)C2)cc1`, the T/C (dose: 100.0 mg/kg/injection, schedule: Q01DX001 (ip), vehicle: suspension in saline) was 102 % of control, the T/C (dose: 200.0 mg/kg/injection, schedule: Q01DX001 (ip), vehicle: suspension in saline) was 103 % of control and the T/C (dose: 400.0 mg/kg/injection, schedule: Q01DX001 (ip), vehicle: suspension in saline) was 100 % of control.
For `O=[N+]([O-])c1ccc(Cl)cc1C(Nc1nncs1)Nc1nncs1`, the T/C [1] was 107 % of control and the T/C [2] was 106 % of control.
For `O=Cc1ccccc1C=O`, the T/C (dose: 100.0 mg/kg/injection, schedule: Q04DX002 (ip), vehicle: saline with Tween-80) was 98 % of control, the T/C (dose: 200.0 mg/kg/injection, schedule: Q04DX002 (ip), vehicle: saline with Tween-80) was 107 % of control and the T/C (dose: 400.0 mg/kg/injection, schedule: Q04DX002 (ip), vehicle: saline with Tween-80) was 102 % of control.
`Cc1ccc(C)c(N2C(=O)CC3(CCCC3)C2=O)c1` was tested, and the T/C (dose: 100.0 mg/kg/injection, schedule: Q04DX003 (ip), vehicle: Klucel (hydroxypropylcellulose) (HPC)) was 101 % of control, the T/C (dose: 200.0 mg/kg/injection, schedule: Q04DX003 (ip), vehicle: Klucel (hydroxypropylcellulose) (HPC)) was 101 % of control and the T/C (dose: 400.0 mg/kg/injection, schedule: Q04DX003 (ip), vehicle: Klucel (hydroxypropylcellulose) (HPC)) was 99 % of control.
